Like-named read-outs stand apart in the source and are kept apart here.
Columns and labels:
LL/2 cells = conditions: SCID-beige mice, 1×10^6 LL/2 cells intravenously; treatment for 120 days
Protocol: In vivo tests were performed as follows: SCID-beige mice aged 6 weeks were injected intravenously with 1×10^6 LL/2 cells.
The treatment groups were:
Group A (Negative Control): Untreated
Volumes of primary tumors were measured twice weekly.

MDA-MB-231/eGFP cells [1] = tested on: MDA-MB-231/eGFP cells
MDA-MB-231/eGFP cells [2] = conditions: Example 14, Ncr nude mice
RIP1-Tag2 mice = conditions: 100 μL topically once daily
From the text: Trial design was built to assess these primary outcomes: the effects on angiogenesis and tumor growth. Treatment groups randomized as follows:
Each applied topically once daily. Formulations are detailed below:

cysteine cathepsin = conditions: after intra-peritoneal injections; cited from earlier work
[3] = tested on: MMTV-PyMT-transgenic mouse model; conditions: cited from earlier work
[4] = Example 13, Ncr nude mice, gross necropsy at end of 120 day survival experiment
[5] = gross necropsy at end of 120 day survival experiment

O=C([O-])O.[Na+] [Group B (Oral Buffer, Positive Control), sodium bicarbonate]
mice surviving to 120 days (LL/2 cells): 20%
% of mice surviving to 120 days (MDA-MB-231/eGFP cells [1]; Example 13, Ncr nude mice, MDA-MB-231/eGFP orthotopic): 60%
metastatic rate, intestinal (MDA-MB-231/eGFP cells [1]; [4]): 0%
metastatic rate, lung (MDA-MB-231/eGFP cells [1]; [4]): 8%
metastatic rate, lymph node (MDA-MB-231/eGFP cells [1]; [4]): 27%
metastatic rate, mesentery (MDA-MB-231/eGFP cells [1]; [4]): 0%
primary tumor growth rates (MDA-MB-231/eGFP cells [1]; Example 13, compared among all active groups B, C, D, E): the same
% of mice surviving to 120 days (MDA-MB-231/eGFP cells [2]; MDA-MB-231/eGFP orthotopic): 60%
metastatic rate, intestinal (MDA-MB-231/eGFP cells [2]; [5]): 0%
metastatic rate, lung (MDA-MB-231/eGFP cells [2]; [5]): 8%
metastatic rate, lymph node (MDA-MB-231/eGFP cells [2]; [5]): 27%
metastatic rate, mesentery (MDA-MB-231/eGFP cells [2]; [5]): 0%

JPM-OEt
reduction in the number of angiogenic islets relative to the Control Group (RIP1-Tag2 mice; at 10.5 weeks of age): 49%
reduction of cumulative tumor volume relative to the Control Group (RIP1-Tag2 mice; at 14.5 weeks of age): 67%
cysteine cathepsin activities in mammary and in lungs (cysteine cathepsin): not significantly affected
cysteine cathepsin activities in pancreas, kidney, and liver (cysteine cathepsin): effective inhibition
activity against early and advanced mammary cancer stages [3]: active
